Results: patent US9079901B2, “Fused heterocyclic compounds as ion channel modulators” (Gilead Sciences, Inc., priority 2010, dated 2015)

Target: wild-type human cardiac sodium channel, hNav1.5 (late sodium current) in HEK293 cells (Homo sapiens, UniProt Q14524)
Assay: Late INa screening assay (automated whole-cell patch clamp, PatchXpress)
Assay type: cell-based
Conditions: HEK293, compound at 1 μM; late INa generated with 10 μM Tefluthrin (or 50 nM ATX II); HEK293 hNav1.5; read-out: Late INa 1 μM (percent block of late INa)
Method in brief: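 Percent block was derived from mean current 225–250 ms into a 250 ms depolarisation to −20 mV (holding −120 mV, every 10 s), normalised to the current left in Na-free solution. Whole-cell recordings came from HEK293 cells stably expressing α-subunit-only hNav1.5, at 24–27 °C. Late current was enhanced with 10 μM tefluthrin or 50 nM ATX II, then compound (typically 10 μM) was added three times over 7–8 min.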

Chain of wild-type human cardiac sodium channel, hNav1.5 (late sodium current) in HEK293 cells (Q14524 whole entry): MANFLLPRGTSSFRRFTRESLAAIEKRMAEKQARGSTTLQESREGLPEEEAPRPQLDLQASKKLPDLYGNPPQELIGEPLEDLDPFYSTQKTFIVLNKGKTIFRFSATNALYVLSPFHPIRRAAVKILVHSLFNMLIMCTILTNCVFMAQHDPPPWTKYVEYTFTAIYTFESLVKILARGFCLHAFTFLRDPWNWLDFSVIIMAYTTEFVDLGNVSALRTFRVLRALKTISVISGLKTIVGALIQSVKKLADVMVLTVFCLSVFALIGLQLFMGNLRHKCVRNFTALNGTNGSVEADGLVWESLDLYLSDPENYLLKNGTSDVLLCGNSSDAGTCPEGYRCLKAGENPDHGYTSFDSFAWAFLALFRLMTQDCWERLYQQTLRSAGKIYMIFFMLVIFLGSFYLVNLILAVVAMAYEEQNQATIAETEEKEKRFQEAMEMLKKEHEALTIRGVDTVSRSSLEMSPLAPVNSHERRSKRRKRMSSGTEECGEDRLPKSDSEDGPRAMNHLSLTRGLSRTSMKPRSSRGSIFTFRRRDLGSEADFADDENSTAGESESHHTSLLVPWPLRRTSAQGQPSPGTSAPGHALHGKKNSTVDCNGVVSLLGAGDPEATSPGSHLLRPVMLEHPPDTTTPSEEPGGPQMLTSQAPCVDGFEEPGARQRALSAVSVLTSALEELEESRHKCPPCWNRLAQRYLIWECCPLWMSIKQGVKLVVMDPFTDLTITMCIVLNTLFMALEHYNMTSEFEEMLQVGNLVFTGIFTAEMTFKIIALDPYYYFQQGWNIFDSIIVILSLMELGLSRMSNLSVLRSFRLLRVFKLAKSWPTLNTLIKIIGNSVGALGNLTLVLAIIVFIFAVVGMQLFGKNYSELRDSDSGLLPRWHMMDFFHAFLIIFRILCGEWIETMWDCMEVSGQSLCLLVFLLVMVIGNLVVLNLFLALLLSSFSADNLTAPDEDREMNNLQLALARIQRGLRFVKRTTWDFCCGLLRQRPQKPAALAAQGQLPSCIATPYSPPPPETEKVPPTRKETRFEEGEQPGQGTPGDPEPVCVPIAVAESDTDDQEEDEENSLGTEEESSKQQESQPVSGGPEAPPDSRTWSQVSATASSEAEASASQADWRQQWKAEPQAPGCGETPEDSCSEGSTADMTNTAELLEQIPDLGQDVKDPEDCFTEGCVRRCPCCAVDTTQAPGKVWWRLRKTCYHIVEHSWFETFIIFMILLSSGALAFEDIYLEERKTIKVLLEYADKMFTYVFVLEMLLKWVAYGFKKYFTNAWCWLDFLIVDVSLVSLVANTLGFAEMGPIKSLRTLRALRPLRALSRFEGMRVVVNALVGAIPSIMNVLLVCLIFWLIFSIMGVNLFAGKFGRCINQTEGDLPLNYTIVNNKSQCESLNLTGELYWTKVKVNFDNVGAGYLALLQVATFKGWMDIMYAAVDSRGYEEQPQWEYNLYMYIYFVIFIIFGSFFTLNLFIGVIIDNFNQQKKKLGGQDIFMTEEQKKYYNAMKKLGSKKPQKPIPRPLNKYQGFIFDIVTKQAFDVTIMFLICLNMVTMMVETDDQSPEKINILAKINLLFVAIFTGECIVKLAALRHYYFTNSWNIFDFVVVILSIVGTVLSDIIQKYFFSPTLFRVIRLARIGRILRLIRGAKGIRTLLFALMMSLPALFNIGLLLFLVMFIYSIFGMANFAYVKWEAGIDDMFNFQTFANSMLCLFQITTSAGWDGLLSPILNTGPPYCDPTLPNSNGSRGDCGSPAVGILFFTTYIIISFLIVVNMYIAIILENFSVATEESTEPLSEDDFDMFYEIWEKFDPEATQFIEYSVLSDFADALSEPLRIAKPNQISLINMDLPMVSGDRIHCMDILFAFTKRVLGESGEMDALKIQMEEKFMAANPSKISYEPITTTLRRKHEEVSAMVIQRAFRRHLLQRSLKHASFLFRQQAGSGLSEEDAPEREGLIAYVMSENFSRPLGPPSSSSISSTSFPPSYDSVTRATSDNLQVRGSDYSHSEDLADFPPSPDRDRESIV

`Cc1noc(-c2ccccc2OCCn2nc3ccc(-c4ccc(OC(F)(F)F)cc4)cn3c2=O)n1` [compound 84, 2-(2-(2-(3-methyl-1,2,4-oxadiazol-5-yl)phenoxy)ethyl)-6-(4-(trifluoromethoxy)phenyl)-[1,2,4]triazolo[4,3-a]pyridin-3(2H)-one] gave an inhibition at 1 µM of 34.3%.
With `O=c1n(CCn2cccn2)nc2ccc(-c3ccc(OC(F)(F)F)cc3)cn12` [compound 35, 2-(2-(1H-pyrazol-1-yl)ethyl)-6-(4-(trifluoromethoxy)phenyl)-[1,2,4]triazolo[4,3-a]pyridin-3(2H)-one] the inhibition at 1 µM was 12.2%.
For `Cc1noc(C)c1Cn1nc2ccc(-c3ccc(OC(F)(F)F)cc3)cn2c1=O` [compound 6, 2-((3,5-dimethylisoxazol-4-yl)methyl)-6-(4-(trifluoromethoxy)phenyl)-[1,2,4]triazolo[4,3-a]pyridin-3(2H)-one], the inhibition at 1 µM was 15.2%.
`O=c1n(CCCc2ccc(F)cc2)nc2ccc(-c3ccc(OC(F)(F)F)cc3)cn12` [compound 76, 2-(3-(4-fluorophenyl)propyl)-6-(4-(trifluoromethoxy)phenyl)-[1,2,4]triazolo[4,3-a]pyridin-3(2H)-one] gave an inhibition at 1 µM of 19%.
Compound `CC1(C)OC[C@@H](c2nc(Cn3nc4ccc(-c5ccc(OC(F)(F)F)cc5)cn4c3=O)no2)O1` [compound 152, (S)-2-((5-(2,2-dimethyl-1,3-dioxolan-4-yl)-1,2,4-oxadiazol-3-yl)methyl)-6-(4-(trifluoromethoxy)phenyl)-[1,2,4]triazolo[4,3-a]pyridin-3(2H)-one] has an inhibition at 1 µM of 10.7%.
With `Cc1nc(Cn2nc3ccc(-c4ccc(OC(F)(F)F)cc4)cn3c2=O)oc1C` [compound 22, 2-((4,5-dimethyloxazol-2-yl)methyl)-6-(4-(trifluoromethoxy)phenyl)-[1,2,4]triazolo[4,3-a]pyridin-3(2H)-one] the inhibition at 1 µM was 29.4%.
Compound `Cc1cccnc1CCn1nc2ccc(-c3ccc(OC(F)(F)F)cc3)cn2c1=O` [compound 61, 2-(2-(3-methylpyridin-2-yl)ethyl)-6-(4-(trifluoromethoxy)phenyl)-[1,2,4]triazolo[4,3-a]pyridin-3(2H)-one] has an inhibition at 1 µM of 41.5%.
`O=c1n(CCOc2ncc(F)c(N3CC(F)(F)C3)n2)nc2ccc(-c3ccc(OC(F)(F)F)cc3)cn12` [compound 133, 2-(2-(4-(3,3-difluoroazetidin-1-yl)-5-fluoropyrimidin-2-yloxy)ethyl)-6-(4-(trifluoromethoxy)phenyl)-[1,2,4]triazolo[4,3-a]pyridin-3(2H)-one] showed an inhibition at 1 µM of 20.5%.
Work on `CO[C@@H](COc1ccccc1Cl)Cn1nc2ccc(-c3ccc(OC(F)(F)F)cc3)cn2c1=O` [compound 96, (R)-2-(3-(2-chlorophenoxy)-2-methoxypropyl)-6-(4-(trifluoromethoxy)phenyl)-[1,2,4]triazolo[4,3-a]pyridin-3(2H)-one] yielded an inhibition at 1 µM of 46.1%.
For `O=c1n(CCOc2cccc(Cl)c2)nc2ccc(-c3ccc(OC(F)(F)F)cc3)cn12` [compound 54, 2-(2-(3-chlorophenoxy)ethyl)-6-(4-(trifluoromethoxy)phenyl)-[1,2,4]triazolo[4,3-a]pyridin-3(2H)-one], the inhibition at 1 µM was 20.2%.
`CCOC(COc1ccc(F)cc1OC)Cn1nc2ccc(-c3ccc(OC(F)(F)F)cc3)cn2c1=O` (centres unmarked) [compound 105, 2-(2-ethoxy-3-(4-fluoro-2-methoxyphenoxy)propyl)-6-(4-(trifluoromethoxy)phenyl)-[1,2,4]triazolo[4,3-a]pyridin-3(2H)-one] gave an inhibition at 1 µM of 45%.
In the case of `O=c1n(Cc2nc(Cc3ccccc3)no2)nc2ccc(-c3ccc(OC(F)(F)F)cc3)cn12` [compound 29, 2-((3-benzyl-1,2,4-oxadiazol-5-yl)methyl)-6-(4-(trifluoromethoxy)phenyl)-[1,2,4]triazolo[4,3-a]pyridin-3(2H)-one], the inhibition at 1 µM is reported as 27.2%.
Work on `O=c1n(CCOc2ccccn2)nc2ccc(-c3ccc(OC(F)(F)F)cc3)cn12` [compound 49, 2-(2-(pyridin-2-yloxy)ethyl)-6-(4-(trifluoromethoxy)phenyl)-[1,2,4]triazolo[4,3-a]pyridin-3(2H)-one] yielded an inhibition at 1 µM of 29.9%.
Compound `O=c1n(CCCc2ccc(F)c(-c3cccnc3)c2)nc2ccc(-c3ccc(OC(F)(F)F)cc3)cn12` [compound 121, 2-(3-(4-fluoro-3-(pyridin-3-yl)phenyl)propyl)-6-(4-(trifluoromethoxy)phenyl)-[1,2,4]triazolo[4,3-a]pyridin-3(2H)-one] has an inhibition at 1 µM of 13.1%.
Compound `O=c1n(Cc2noc(C(F)F)n2)nc2ccc(-c3ccc(OC(F)(F)F)cc3)cn12` [compound 154, 2-((5-(difluoromethyl)-1,2,4-oxadiazol-3-yl)methyl)-6-(4-(trifluoromethoxy)phenyl)-[1,2,4]triazolo[4,3-a]pyridin-3(2H)-one] has an inhibition at 1 µM of 21%.
`CCOc1ccccc1OCC(O)Cn1nc2ccc(-c3ccc(OC(F)(F)F)cc3)cn2c1=O` (centres unmarked) [compound 99, 2-(3-(2-ethoxyphenoxy)-2-hydroxypropyl)-6-(4-(trifluoromethoxy)phenyl)-[1,2,4]triazolo[4,3-a]pyridin-3(2H)-one] gave an inhibition at 1 µM of 36.5%.
With `O=c1n(Cc2noc(-c3cccc(C(F)(F)F)c3)n2)nc2ccc(-c3ccc(OC(F)(F)F)cc3)cn12` [compound 7, 6-(4-(trifluoromethoxy)phenyl)-2-((5-(3-(trifluoromethyl)phenyl)-1,2,4-oxadiazol-3-yl)methyl)-[1,2,4]triazolo[4,3-a]pyridin-3(2H)-one] the inhibition at 1 µM was 24.5%.
`CCOc1ccnc(OCCn2nc3ccc(-c4ccc(OC(F)(F)F)cc4)cn3c2=O)n1` [compound 106, 2-(2-(4-ethoxypyrimidin-2-yloxy)ethyl)-6-(4-(trifluoromethoxy)phenyl)-[1,2,4]triazolo[4,3-a]pyridin-3(2H)-one] gave an inhibition at 1 µM of 47.2%.
`O=c1n(Cc2coc(C3CC3)n2)nc2ccc(-c3ccc(OC(F)(F)F)cc3)cn12` [compound 181, 2-((2-cyclopropyloxazol-4-yl)methyl)-6-(4-(trifluoromethoxy)phenyl)-[1,2,4]triazolo[4,3-a]pyridin-3(2H)-one] showed an inhibition at 1 µM of 23.9%.
`Cn1cc(Cn2nc3ccc(-c4ccc(OC(F)(F)F)cc4)cn3c2=O)cn1` [compound 163, 2-((1-methyl-1H-pyrazol-4-yl)methyl)-6-(4-(trifluoromethoxy)phenyl)-[1,2,4]triazolo[4,3-a]pyridin-3(2H)-one] gave an inhibition at 1 µM of 12%.
In the case of `O=c1n(Cc2nnc(C3CC3)s2)nc2ccc(-c3ccc(OC(F)(F)F)cc3)cn12` [compound 170, 2-((5-cyclopropyl-1,3,4-thiadiazol-2-yl)methyl)-6-(4-(trifluoromethoxy)phenyl)-[1,2,4]triazolo[4,3-a]pyridin-3(2H)-one], the inhibition at 1 µM is reported as 18%.
`O=c1n(CCOc2nccc(-c3ccccc3)n2)nc2ccc(-c3ccc(OC(F)(F)F)cc3)cn12` [compound 115, 2-(2-(4-phenylpyrimidin-2-yloxy)ethyl)-6-(4-(trifluoromethoxy)phenyl)-[1,2,4]triazolo[4,3-a]pyridin-3(2H)-one] showed an inhibition at 1 µM of 22.9%.
For `O=c1n(Cc2noc(COc3ncccn3)n2)nc2ccc(-c3ccc(OC(F)(F)F)cc3)cn12` [compound 162, 2-((5-((pyrimidin-2-yloxy)methyl)-1,2,4-oxadiazol-3-yl)methyl)-6-(4-(trifluoromethoxy)phenyl)-[1,2,4]triazolo[4,3-a]pyridin-3(2H)-one], the inhibition at 1 µM was 18.5%.
